# Values quoted from earlier work in patent publication US8668932B2 (priority 2003, dated 2014).
# Columns and labels:
# [1] = test system: neuronal norepinephrine reuptake
# [2] = test system: alpha-1 adrenergic receptors
# [3] = not given; remark: listed apart in the source
# [4] = for elimination half-life (T½): in vivo
# [5] = test system: neuronal serotonin reuptake
Structure (SMILES),pKa,inhibition of neuronal norepinephrine reuptake [1],inhibition of dopamine reuptake (dopamine reuptake),inhibition of monoamine oxidase (monoamine oxidase),affinity for histaminergic receptors (histaminergic receptors),affinity for alpha-1 adrenergic receptors [2],plasma protein binding [3],elimination half-life (T½) [4] [h],absolute bioavailability ([4]; oral),time to steady-state concentrations ([4]; oral multiple dose therapy),"fraction of dose absorbed ([4]; single oral dose, mass balance studies)",inhibition of neuronal serotonin reuptake [5]
"COc1ccc(C(CN(C)C)C2(O)CCCCC2)cc1.Cl (racemic) [venlafaxine, (R/S)-1-[2-(dimethylamino)-1-(4-methoxyphenyl)ethyl]cyclohexanol hydrochloride]",9.4,potent inhibitors,weak inhibitors,does not inhibit,no significant affinity,no significant affinity,approximately 30%,5 ± 2,about 45%,three,at least 92%,–
"CN(C)CC(c1ccc(O)cc1)C1(O)CCCCC1 (stereo not drawn) [ODV, O-desmethylvenlafaxine]",–,potent inhibitors,weak inhibitors,–,–,–,–,11 ± 2,–,–,–,potent inhibitors
